Measured values taken from patent US5407918A, “16-membered macrolide derivatives and process for producing the same” (Meiji Seika Kaisha, Ltd., priority 1992, dated 1995).
Converted amounts (≈) assume the structure as drawn.

Legend:
[1] = concentration in serum after oral administration to mice, bioassay; assay type: in vivo, mice (Jcl:ICR); conditions: mouse, serum, 200 mg/kg, M. luteus bioassay, read-out: maximum concentration in the serum
Method: The compound (3) was mixed with a 0.2% solution of carboxymethylcellulose to give a concentration of 4 mg/ml and a 1 ml portion of the resulting emulsion was orally administered to 4-week-old male Jcl:ICR mice. Blood was collected from armpit of the mice 30, 60, 120, 240 and 360 minutes after the administration of the test compound (n=2). The collected blood was allowed to stand at room temperature for about 2 hours and centrifuged for 20 minutes with a centrifuge (KUBOTA KS-5000P) to obtain serum. To the serum was added an equivalent volume of 50% CH3 CN-50 mM phosphate (1:1 by volume) buffer (pH 7.0). The resulting mixture served as a serum sample. The concentration of the test compound in the serum sample was measured by the following bioassay method.
One hundred […] of the serum sample was poured into a hole made on a test plate containing 40 ml of MRAPJ medium (6 g/l peptone, 3 g/l yeast extract, 1.5 g/l meat extract, 1 g/l glucose and 15 g/l agar, pH 6.5) supplemented with a solution of M. Iuteus ATCC9341 (1%) and incubated at 32° C. for 18 hours and MIC was measured based on the calibration curve. MOM, MDM and RKM were also tested for comparison. […] Thus a long-pending problem of "low concentration in serum" of 16-membered macrolide antibiotics has been solved. […] Thus this compound is considered as a macrolide derivative showing new pharmacokinetics.
Further, a pharmacokinetics test on the compound (12) of the present invention is carried out in the same manner as described above. Namely, 200 mg/kg of the compound (12) is orally administered to mice and the concentration of this compound in the serum is determined by a bioassay method with the use of M. luteus as a test strain. […] The disadvantage of 16-membered ring macrolide antibiotics, which has been pointed out for a long time, has been thus overcome.

[2] = recovery in urine after oral administration to mice, bioassay; assay type: in vivo; conditions: mouse, 200 mg/kg oral (compound (3)), urine 4 and 24 hours
Method: Subsequently, 200 mg/kg of the compound (3) was orally administered to three mice in the same manner as described above.
The three mice were put in a metabolic cage MM type (Sugiyamagen Company, Tokyo, Japan) and urine was collected 4 and 24 hours after the administration of the test compound. The collected urine was filtered through a filter having a pore size of 0.45 μm (Millipore) and was mixed with an equivalent volume of 50% CH3CN-50 mM phosphate (1:1 by volume) buffer (pH 6.5) to serve as a urine sample. The bioassay was carried out in the same manner as described above to determine the concentration of the test compound in the urine sample. The recovering in the urine was calculated according to the following equation. [formula]

[3] = Yakugaku Zasshi, 102 (8), 781 (1982); cited from earlier work
esterase = conditions: in vivo; cited from earlier work
B. catarrhalis W-0500 = assay: MIC, agar plate dilution method; assay type: cell-based; conditions: Moraxella catarrhalis, W0500, 37° C., 20 hours, read-out: Antimicrobial activity (MIC)
Procedure, shortened: (§1)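 Agar plate dilution on Sensitivity disk agar with 5% horse blood; 5 μl inoculum of about 10^6 CFU/ml, Branhamella precultured on blood agar. MIC read after 20 hours at 37° C.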

B. catarrhalis W-0506 = assay: MIC, agar plate dilution method; assay type: cell-based; conditions: Moraxella catarrhalis, W0506, 37° C., 20 hours, read-out: Antimicrobial activity (MIC)
Procedure, shortened: as §1

E. coli NIHJ JC-2 = assay: MIC, agar plate dilution method; assay type: cell-based; conditions: Escherichia coli, NIHJJC2; E. coli NIHJ JC-2; 37° C., 20 hours; read-out: Antimicrobial activity (MIC)
Procedure, shortened: as §1

E. faecalis W-73 = assay: MIC, agar plate dilution method; assay type: cell-based; conditions: Enterococcus faecalis, W73; E. faecalis W-73; 37° C., 20 hours; read-out: Antimicrobial activity (MIC)
Procedure, shortened: as §1

H. influenzae 9334 = assay: MIC, agar plate dilution method; assay type: cell-based; conditions: Haemophilus influenzae; H. influenzae 9334; 37° C., 20 hours; read-out: Antimicrobial activity (MIC)
Procedure, shortened: as §1

K. pneumoniae PC1602 = assay: MIC, agar plate dilution method; assay type: cell-based; conditions: Klebsiella pneumoniae, 37° C., 20 hours, read-out: Antimicrobial activity (MIC)
Procedure, shortened: as §1

M. luteus ATCC9341 = assay: MIC, agar plate dilution method; assay type: cell-based; conditions: Micrococcus luteus; M. luteus ATCC9341; 37° C., 20 hours; read-out: Antimicrobial activity (MIC)
Procedure, shortened: as §1

M. pneumoniae FH-P24 = assay: MIC, agar plate dilution method; assay type: cell-based; conditions: Mycoplasmoides pneumoniae, FHP24, 20 h; M. pneumoniae FH-P24; read-out: Antimicrobial activity (MIC)
Procedure, shortened: (§2)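 MIC is the value read after 20 hours at 37° C on compound-containing Sensitivity disk agar supplemented with 5% horse blood. Each plate receives a 5 μl spot of cell suspension near 10^6 CFU/ml, prepared from broth seed cultures or, for Branhamella, blood agar cultures.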

M. pneumoniae FH = assay: MIC, agar plate dilution method; assay type: cell-based; conditions: Mycoplasmoides pneumoniae, 20 h, read-out: Antimicrobial activity (MIC)
Procedure, shortened: as §1

M. pneumoniae Mac = assay: MIC, agar plate dilution method; assay type: cell-based; conditions: Mycoplasmoides pneumoniae, 20 h, read-out: Antimicrobial activity (MIC)
Procedure, shortened: as §1

M. pneumoniae Numata = assay: MIC, agar plate dilution method; assay type: cell-based; conditions: Mycoplasmoides pneumoniae, 20 h, read-out: Antimicrobial activity (MIC)
Procedure, shortened: as §1

S. Pneumoniae Type 1 = assay: MIC, agar plate dilution method; assay type: cell-based; conditions: Streptococcus pneumoniae; S. Pneumoniae Type 1; 37° C., 20 hours; read-out: Antimicrobial activity (MIC)
Procedure, shortened: as §1

S. Pyogenes Cook = assay: MIC, agar plate dilution method; assay type: cell-based; conditions: Streptococcus pyogenes, 37° C., 20 hours, read-out: Antimicrobial activity (MIC)
Procedure, shortened: as §1

S. aureus 209P JC-1 = assay: MIC, agar plate dilution method; assay type: cell-based; conditions: Staphylococcus aureus; S. aureus 209P JC-1; 37° C., 20 hours; read-out: Antimicrobial activity (MIC)
Procedure, shortened: as §1

S. aureus M126 = assay: MIC, agar plate dilution method; assay type: cell-based; conditions: Staphylococcus aureus; S. aureus M126; 37° C., 20 hours; read-out: Antimicrobial activity (MIC)
Procedure, shortened: as §1

S. aureus M133 = assay: MIC, agar plate dilution method; assay type: cell-based; conditions: Staphylococcus aureus, 37° C., 20 hours, read-out: Antimicrobial activity (MIC)
Procedure, shortened: as §1

S. aureus MS15009/pMS98 = assay: MIC, agar plate dilution method; assay type: cell-based; conditions: Staphylococcus aureus, MS15009/PMS98, 20 h, read-out: Antimicrobial activity (MIC)
Procedure, shortened: as §2

S. aureus MS15009/pMS99 = assay: MIC, agar plate dilution method; assay type: cell-based; conditions: Staphylococcus aureus, MS15009/PMS99, 20 h, read-out: Antimicrobial activity (MIC)
Procedure, shortened: as §2

S. aureus MS15026 = assay: MIC, agar plate dilution method; assay type: cell-based; conditions: Staphylococcus aureus, 37° C., 20 hours, read-out: Antimicrobial activity (MIC)
Procedure, shortened: as §1

S. aureus MS15027 = assay: MIC, agar plate dilution method; assay type: cell-based; conditions: Staphylococcus aureus, 37° C., 20 hours, read-out: Antimicrobial activity (MIC)
Procedure, shortened: as §1

S. epidermidis ATCC14990 = assay: MIC, agar plate dilution method; assay type: cell-based; conditions: Staphylococcus epidermidis, 37° C., 20 hours, read-out: Antimicrobial activity (MIC)
Procedure, shortened: as §1

S. pneumoniae IP692 = assay: MIC, agar plate dilution method; assay type: cell-based; conditions: Streptococcus pneumoniae; S. pneumoniae IP692; 37° C., 20 hours; read-out: Antimicrobial activity (MIC)
Procedure, shortened: as §1

[4] = pharmacokinetics of midecamycins after oral administration to mice; assay type: in vivo
Excerpt: First, the present inventors discussed effects of a difference in the structure at the 9-position among midecamycin analogues, from among 16-membered macrolide compounds, on pharmacokinetics. That is to say, midecamycin A1 having a hydroxyl group at the 9-position (Medemycin; MDM) [Journal of Antibiotics, 24 (7), 452 (1971)] and midecamycin A3 having a carbonyl group at the 9-position [ibid., 24 (7), 476 (1971)] were orally administered to animals (mice), followed by observing the pharmacokinetics.

CCC(=O)O[C@@H]1CC(=O)O[C@H](C)C/C=C/C=C/[C@H](OC(C)=O)[C@H](C)C[C@H](CC=O)[C@H](O[C@@H]2O[C@H](C)[C@@H](O[C@H]3C[C@@](C)(OC(C)=O)[C@@H](OC(=O)CC)[C@H](C)O3)[C@H](N(C)C)[C@H]2O)[C@H]1OC [MOM, miokamycin, reference compound]
Cmax [1]: 6200 ng/mL
dose excreted at 24 h [2]: < 2%
metabolic pattern of the mycarose moiety in human compared with rat [3]: almost the same as that in rat
metabolism of the two acyl groups in the neutral sugar moiety (esterase): removed with esterase in vivo

CCC(=O)O[C@@H]1CC(=O)O[C@H](C)C/C=C/C=C/[C@H](O)[C@H](C)C[C@H](CC=O)[C@H](O[C@@H]2O[C@H](C)[C@@H](O[C@H]3C[C@@](C)(O)[C@@H](OC(=O)CC)[C@H](C)O3)[C@H](N(C)C)[C@H]2O)[C@H]1OC [MDM, midecamycin A1, reference compound]
MIC (B. catarrhalis W-0500): 3.13 µg/mL (≈ 3.85 µM)
MIC (B. catarrhalis W-0506): 1.56 µg/mL (≈ 1.92 µM)
MIC (E. coli NIHJ JC-2): > 100 µg/mL
MIC (E. faecalis W-73): 3.13 µg/mL (≈ 3.85 µM)
MIC (H. influenzae 9334): 3.13 µg/mL (≈ 3.85 µM)
MIC (K. pneumoniae PC1602): > 100 µg/mL
MIC (M. luteus ATCC9341): 0.05 µg/mL (≈ 0.0614 µM)
MIC (M. pneumoniae FH-P24): 0.1 µg/mL (≈ 0.123 µM)
MIC (M. pneumoniae FH): 1.56 µg/mL (≈ 1.92 µM)
MIC (M. pneumoniae Mac): 0.1 µg/mL (≈ 0.123 µM)
MIC (M. pneumoniae Numata): 0.05 µg/mL (≈ 0.0614 µM)
MIC (S. Pneumoniae Type 1): 0.39 µg/mL (≈ 0.479 µM)
MIC (S. Pyogenes Cook): 0.2 µg/mL (≈ 0.246 µM)
MIC (S. aureus 209P JC-1): 0.39 µg/mL (≈ 0.479 µM)
MIC (S. aureus M126): > 100 µg/mL
MIC (S. aureus M133): 0.78 µg/mL (≈ 0.958 µM)
MIC (S. aureus MS15009/pMS98): 0.39 µg/mL (≈ 0.479 µM)
MIC (S. aureus MS15009/pMS99): > 100 µg/mL
MIC (S. aureus MS15026): > 100 µg/mL
MIC (S. aureus MS15027): 0.78 µg/mL (≈ 0.958 µM)
MIC (S. epidermidis ATCC14990): 1.56 µg/mL (≈ 1.92 µM)
MIC (S. pneumoniae IP692): 0.39 µg/mL (≈ 0.479 µM)
Cmax [1]: 5200 ng/mL
dose excreted at 24 h [2]: < 2%
recovery in urine compared with midecamycin A3 [4]: superior to midecamycin A3
sustained concentration in serum compared with midecamycin A3 [4]: superior to midecamycin A3
